Experimental data: publication PMC8686256, “DZNep promotes mouse bone defect healing via enhancing both osteogenesis and osteoclastogenesis” (Stem Cell Research & Therapy, 2021)

Experiments:
NF-κB signaling pathway = experiment: Western blotting and immunofluorescence of NF-κB signaling pathway; type: cell-based, mouse
Method: (§1) To explore the variation of the proteins on long-term activated signaling, BMMs were cultured in α-MEM containing M-CSF (30 ng/ml) and RANKL (50 ng/ml) at a density of 2 × 10^5 cells/well on 6-well plates. After 24 h, the BMMs were treated with or without 25 nM DZNep for 0, 1, 3, and 5 days, and total protein was obtained, respectively, on these specific time points. To determine the effect of DZNep on the protein of short-time activated phosphorylated, RAW264.7 cells were cultured in α-MEM at a density of 5 × 10^5 cells/well on 6-well plates. One day later, the cells were treated with the serum-free α-MEM in the presence or absence of DZNEP for 3 hand then stimulated with 50 ng/mL RANKL for 0, 10, 20, 30, and 60 min. To determine the efficiency of EZH2 shRna, BMMs were cultured in α-MEM at a density of 5 × 10^5 cells/well on 6-well plates. One day later, the cells were treated with negative control shRNA or different EZH2 shRNA for 2 days. To determine the efficiency of Foxc1 siRna, BMMs were cultured in α-MEM at a density of 5 × 10^5 cells/well on 6-well plates. […] After TBST wash for 3 times, the secondary fluorescence antibodies were incubated without light for 1 h at room temperature and the reactivity was visualized by using Odyssey V3.0 image scanning (Li-COR. Inc., Lincoln, NE, USA). […]

bone defect mice = experiment: Tibia cortical and trabecular bone defect mice model; type: in vivo, mouse
Source text: The tibia cortical and trabecular bone defect mice model was established to determine the bone healing effect of DZNep in vivo. Firstly, all mice (twelve 8-week-old C57/BL6 male mice (approximate weight 20 ± 2 g)) were anesthetized by 2% isoflurane, the right tibia was exposed, and muscles were dissociated. Then a pilot hole was first made with a burr drill point in the proximal tibia, but away from the growth plate to some extent. Then the hole was enlarged with a 1 mm […]. Afterward, the mice were average divided into two groups: (1) DZNep group (injection with 100 μg/kg DZNep); (2) Sham group (injection with 1 × PBS). Two days after operation, 1 × PBS for sham group and DZNep for treatment group were intraperitoneally injected every two days during next two week. All mice were finally euthanized after experiment, and whole tibia bones were separated. After fixed in 4% paraformaldehyde for 24 h, the 75% ethanol was then used to soak the specimens for further histological and radiographic analysis. High-resolution micro-CT (μCT-100, SCANCO Medical AG, Switzerland) was used to perform the micro-computed tomography (CT) scanning. […] For analysis bone mass of defect section, a region of defect section trabecular bone was contoured, starting from the first defect section level away from proximal end of the […] growth plate. Femoral trabecular bone was thresholded at 211 per mille. The indicators of bone microstructure (bone volume/tissue volume (BV/TV), trabecular thickness (Tb.Th), trabecula number (Tb.N), trabecula separation (Tb.Sp), and bone surface/ bone volume (BS/BV)) were measured by software (Version: 6.5-3, SCANCO Medical AG, Switzerland) through evaluating and analyzing the three-dimensional region of interest (ROI). After fixing in 4% paraformaldehyde for 48 h, the 10% EDTA was used to decalcify the fixed tibias for 21 days. Then the tissues were processed by dehydrating in different concentrations of ethanol, infiltrating with xylene, and embedding with paraffin. Hematoxylin and eosin (H&E) and TRAP staining were then performed on these prepared histological sections. As for immunofluorescent staining, slices were processed in a sequence of deparaffinization, hydration, antigen retrieval, permeabilization, blocking, primary antibody incubation (OCN, USA, Affinity; dilution 1:100), secondary antibody incubation, and nuclear staining finally. Immunohistochemical (IHC) staining was accomplished with antibodies against OCN (USA, Affinity; dilution 1:100). The specimens were observed and photographed under the high-quality microscope (Leica DM4000B). Each sample's number of osteoclasts and TRAP-positive multinucleated osteoclasts per field (Oc.S/BS) were calculated.

c-FOS and NFATc1 = experiment: Western blotting of c-FOS and NFATc1 in BMMs; type: cell-based, mouse
Method: as §1

[1] = 100 μg/kg i.p. every two days, two weeks

SMILES: Nc1nccc2c1ncn2C1C=C(CO)C(O)C1O (stereo not shown) [DZNep, 3-Deazaneplanocin]
- NF-κB nuclear translocation (NF-κB signaling pathway; 25 nM pretreatment, then RANKL): enhancement of NF-κB nuclear translocation
- phosphorylation of IKK, IκB, and p65 (NF-κB signaling pathway; RAW264.7, 25 nM pretreatment, RANKL for specific times): further promoted over time
- osteocalcin (OCN) expression in vivo (bone defect mice; 100 μg/kg i.p.): increased
- BV/TV (micro-CT) (bone defect mice; [1]): prominently increased
- trabecular thickness (Tb.th) (micro-CT) (bone defect mice; [1]): prominently increased
- bone mineral density (X-ray) (bone defect mice; 100 μg/kg i.p. every two days, two weeks, vs control): more bone mineral density
- bone repair (H&E-stained sections) (bone defect mice; 100 μg/kg i.p., vs control): more significant bone repair
- number of TRAP-positive multinucleated osteoclasts in vivo (bone defect mice; 100 μg/kg i.p., vs vehicle-treated group): more number of TRAP-positive multinucleated osteoclasts
- expression of c-FOS and NFATc1 (western blot) (c-FOS and NFATc1; 25 nM, 0, 1, 3, 5 days, vs control): further enhanced
- c-FOS and NFATc1 expression (western blot), various concentrations (c-FOS and NFATc1; RANKL, 5 days): upregulated
